system: sorbitol levels in diabetic rats; assay: inhibition of the formation of sorbitol levels in diabetic rats, oral; type: in vivo, rat; conditions: dose levels ranging from 0.5 mg/kg to 20 mg/kg
Text: As previously indicated, the spiro-oxindole imidazolidinedione compounds of this invention are readily adapted to therapeutic use as aldose reductase inhibitors for the control of chronic diabetic complications, in view of their ability to reduce lens sorbitol levels in diabetic subjects to a statistically significant degree. […] Furthermore, the herein described compounds of this invention can be administered by either the oral or parenteral routes of administration. […]
(§1) The activity of the compounds of the present invention, as agents for the control of chronic diabetic complications, is determined by their ability to successfully pass one or more of the following standard biological or pharmacological tests, viz., (1) measuring their ability to inhibit the enzyme activity of isolated aldose reductase; (2) measuring their ability to reduce or inhibit sorbitol accumulation in the sciatic nerve of acutely streptozotocinized (i.e., diabetic) rats; (3) measuring their ability to reverse already-elevated sorbitol levels in the sciatic nerve and lens of chronic streptozotocin-induced diabetic rats; (4) measuring their ability to prevent or inhibit galactitol formation in the lens of acutely galactosemic rats, and (5) measuring their ability to delay cataract formation and reduce the severity of lens opacities in chronic galactosemic rats.

| Structure (SMILES) | inhibition of the formation of sorbitol levels in diabetic rats (in words) |
| --- | --- |
| O=C1NC(=O)C2(N1)C(=O)N(Cc1cccnc1)c1c(Cl)cc(Cl)cc12 (centres unmarked) [Example 2, 1'-(3-pyridymethyl)-5',7'-dichloro-spiro-[imidazolidine-4,3'-indoline]-2,2',5-trione] | significantly high degree |

molecular target: T1, aldose reductase (Bos taurus, UniProt P16116); assay: inhibition of aldose reductase enzyme activity (partially purified enzyme from calf lens); type: biochemical; conditions: 10^-6 M; partially purified aldose reductase from calf lens
T1 construct: partially purified aldose reductase enzyme obtained from calf lens; from tissue; host or cells: calf lens
Protocol: as §1
The following spiro-oxindole imidazolidinedione final products of Examples 1-5, respectively, were tested at a concentration level of 10^-6 M for their ability to reduce or inhibit aldose reductase enzyme activity via the procedure of S. Hayman et al., as described in the Journal of Biological Chemistry, Vol. 240, p. 877 (1965) and as modified by K. Sestanj et al. in U.S. Pat. No. 3,821,383. In every case, the substrate employed was partially purified aldose reductase enzyme obtained from calf lens.

| Structure (SMILES) | inhibition at 1 µM [%] |
| --- | --- |
| Nc1cc(Cl)cc2c1NC(=O)C21NC(=O)NC1=O (centres unmarked) [Example 1, 5'-chloro-7'-amino-spiro-[imidazolidine-4,3'-indolidine]-2,2',5-trione] | 72 |
| O=C1NC(=O)C2(N1)C(=O)N(Cc1cccnc1)c1c(Cl)cc(Cl)cc12 (centres unmarked) [Example 2, 1'-(3-pyridymethyl)-5',7'-dichloro-spiro-[imidazolidine-4,3'-indoline]-2,2',5-trione] | 81 |

Results, then the compound that gave them:

| inhibition at 1 µM [%] | Structure (SMILES) |
| --- | --- |
| 71 | O=C1NC(=O)C2(N1)C(=O)N(Cc1cccnc1)c1ccc(F)cc12 (centres unmarked) [Example 3, 1'-(3-pyridylmethyl)-5'-fluorospiro-[imidazolidine-4,3'-indoline]-2,2',5-trione] |
| 27 | Nc1ccc2c(c1)NC(=O)C21NC(=O)NC1=O (centres unmarked) [Example 4, 6'-amino-spiro-[imidazolidine-4,3'-indoline]-2,2',5-trione] |
| 49 | O=C1NC(=O)C2(N1)C(=O)Nc1cnccc12 (centres unmarked) [Example 5, spiro-[imidazolidine-4,3'-(6-azaindoline)]-2,2',5-trione] |

same assay, conditions: qualitative statement, no concentration given

| Structure (SMILES) | aldose reductase inhibitory activity (in words) |
| --- | --- |
| Nc1cc(Cl)cc2c1NC(=O)C21NC(=O)NC1=O (centres unmarked) [Example 1, 5'-chloro-7'-amino-spiro-[imidazolidine-4,3'-indolidine]-2,2',5-trione] | highly potent |
| O=C1NC(=O)C2(N1)C(=O)N(Cc1cccnc1)c1c(Cl)cc(Cl)cc12 (centres unmarked) [Example 2, 1'-(3-pyridymethyl)-5',7'-dichloro-spiro-[imidazolidine-4,3'-indoline]-2,2',5-trione] | highly potent |

Now from value to compound:

| aldose reductase inhibitory activity (in words) | Structure (SMILES) |
| --- | --- |
| highly potent | O=C1NC(=O)C2(N1)C(=O)N(Cc1cccnc1)c1ccc(F)cc12 (centres unmarked) [Example 3, 1'-(3-pyridylmethyl)-5'-fluorospiro-[imidazolidine-4,3'-indoline]-2,2',5-trione] |
| highly potent | Nc1ccc2c(c1)NC(=O)C21NC(=O)NC1=O (centres unmarked) [Example 4, 6'-amino-spiro-[imidazolidine-4,3'-indoline]-2,2',5-trione] |
| highly potent | O=C1NC(=O)C2(N1)C(=O)Nc1cnccc12 (centres unmarked) [Example 5, spiro-[imidazolidine-4,3'-(6-azaindoline)]-2,2',5-trione] |

From patent US4533667A, “Imidazolidinedione derivatives” (Pfizer Inc., priority 1984, dated 1985)
